Reference: article PMC7992430 (Journal of medicinal chemistry, 2020)

Key:
[1] = tested on: G9 neurospheres (glioma stem-like cells); assay: G9 cytotoxicity assay; assay type: cell-based
[2] = tested on: G30 neurospheres (glioma stem-like cells, luciferase-transduced); assay: G30 cytotoxicity assay; assay type: cell-based; conditions: read-out: IC50 in G30 GSCs, 72 h treatment, CellTiter-Glo

Compound	IC50 ([1]; read-out: IC50 against G9 cells, 80 h treatment, CellTiter-Glo) [µM]	IC50 [2] [µM]	IC50 against G9 cells ([1]; 80 h treatment, CellTiter-Glo)
N.N.[Cl][Pt][Cl] [cisplatin]	4	2	
CCCCNC(=O)[O][Pt]([NH2])([NH2])([Cl])([Cl])[O]C(=O)CCC(=O)O [prodrug 4, cis,cis,trans-[Pt(NH3)2Cl2(O2CCH2CH2COOH)(n-butyl Carba-mate)]]			not active
